Source: patent US7919460B2, “Method for prophylaxis of reflex sympathetic dystrophy after stroke” (Asahi Kasei Pharma Corporation, priority 2006, dated 2011)

Experiments:
[1] = system: patients with hemiplegia attributed to cerebrovascular disease (stroke) who developed RSD (shoulder-hand syndrome); assay: Test of treatment of post-stroke RSD (therapeutic administration after onset); assay type: in vivo, humans; conditions: therapeutic administration group (11 patients), at completion of administration
Description: EL was administered after the onset of RSD (shoulder-hand syndrome) in the same use and dose as in Example 1 to 11 patients with hemiplegia attributed to cerebrovascular disease (stroke) at Brunnstrom stage III or lower in either the upper limb or a finger on admission, who developed RSD (shoulder-hand syndrome). These patients were classified into a therapeutic administration group. On the other hand, the EL administration group of Example 1 was compared as a control (preventive administration group) with the therapeutic administration group.

[2] = system: patients with hemiplegia attributed to cerebrovascular disease (stroke), onset of RSD (shoulder-hand syndrome); assay: Test of prevention of onset of post-stroke RSD; assay type: in vivo, humans
Source text: Test subjects were 33 patients with hemiplegia attributed to cerebrovascular disease (stroke) at Brunnstrom stage III or lower in either the upper limb or a finger on admission. Patients already developing RSD (shoulder-hand syndrome) on admission and patients with pain in the shoulder joint or swollen paralyzed limbs were excluded from the test. […] On the other hand, 21 test subjects were classified into a rehabilitation alone group (control group) and compared with the EL administration group. Physical therapy and therapeutic exercise, occupational therapy, and the management of the paralyzed limbs were performed thoroughly in all the cases. […] EL administration was initiated 11 to 59 days after an attack of stroke (25.8 days on average) and continued until 5 months after the attack of stroke. The same observation period was applied to the control group. The test subjects were diagnosed as developing RSD (shoulder-hand syndrome) if they had diffuse pain not localized to the shoulder joint, edema involving skin color changes, skin temperature abnormalities, and range of motion limitations, and the practice of their rehabilitation was restricted. These criteria agreed to Veldmnan's diagnostic criteria or diagnostic criteria for CRPS-type 1 provided by the International Association for the Study of Pain.
Activities of daily living (ADL) were evaluated on the basis of the Barthel Index (BI) and the range of motion (ROM) of shoulder joint. The movable range of shoulder joint (also referred to as “shoulder ROM”) was regarded as restricted (Shoulder-ROM-restrictions were present.) if either abduction or flexion was restricted in measurement. The test subjects were also examined for sensory impairment, aphasia, and unilateral spatial neglect on admission.
Statistical analysis was conducted with unpaired t-test, Fisher's exact test or Wilcoxon test, and 5% or lower significance level was regarded as being significant.

[3] = system: RSD triggered and developed by a trauma or surgical invasion; conditions: clinical, literature; cited from earlier work
[4] = in vivo; cited from earlier work
[5] = EL preventive administration group (12 cases), 20 units i.m. once a week until 5 months after stroke

1-butyric acid-7-(L-2-aminobutyric acid)-26-L-aspartic acid-27-L-valine-29-L-alanine-calcitonin [elcatonin]
No RSD, the number of persons [1]: 0
Incidence converted to incidence in all patients with hemiplegia attributed to stroke in the facility ([2]; EL administration group): approximately 1.3%
Incidence of RSD ([2]; EL administration initiated within 48 days after stroke): 0%
The number of test subjects developing post-stroke RSD: Developed [2, 5]: 1
The number of test subjects developing post-stroke RSD: Not developed [2, 5]: 11
Incidence of RSD (cases developed RSD) ([2]; EL preventive administration group, 12 cases): 8.3%
Incidence of RSD until discharge versus unadministered patient group ([2]; repetitive administration to stroke hemiplegia patients without RSD on admission): suppressed significantly and remarkably

O=C1O[C@H]([C@@H](O)CO)C(O)=C1O [vitamin C]
Preventive effect on the initial onset of RSD after trauma or surgical invasion [3]: preventive effect

salmon calcitonin
Dose of oral administration agent relative to dose of drip infusion in vein [4]: approximately 60 times
